Reference: US20260373155A1, “TRANSDERMALLY- OR TOPICALLY-ADMINISTERED COMPOSITION COMPRISING THIENOPYRIDINE COMPOUND” (GY LIFE SCIENCES CO., LTD., priority 2022, published 2026)

How the values were obtained:
[1] = Comparison of L-menthol with other known transdermal permeation enhancers (AUC∞ of the thienopyridine compound); format: in vivo; conditions: AUC∞ after transdermal administration, component replaced with water, mice, FIG. 3
Procedure: Other reported transdermal permeation enhancers were tested to see how they affect the skin permeability of the thienopyridine compound.
Variants of the Example 1 formulation were created by removing one of the following and replacing it with water: propylene glycol, glycerol, or urea. Each variant was administered transdermally to mice (n=3) as in Experimental Example 2. Blood samples were analyzed to obtain plasma concentration-time profiles and the resulting average AUC∞±SD. These were compared by bar chart (FIG. 3) with the Example 1 formulation (with L-menthol) and Comparative Example 1 (without L-menthol). The asterisk (*) indicates p<0.01 (t-test).

[2] = Solution stability of the hydrochloride salt with solubilizer or thickener (days without precipitation); format: physicochemical; conditions: 0.3% hydrochloride salt, aqueous phase, room temperature
Procedure: This experiment examined whether a solubilizer or thickener could maintain a stable solution (without solid precipitation due to self-aggregation) of the hydrochloride salt of the thienopyridine compound of Chemical Formula 1 in an aqueous phase at room temperature. Specifically, 0.3% of the hydrochloride salt was dissolved in a water-phase solution composed of water, PEG400, glycerol, propylene glycol, hexanediol, and polysorbate 60 (as per Table 3). It was heated at 80 °C with stirring for 10 minutes for complete dissolution, then cooled to room temperature. 1% (w/w) of urea or polyvinylpyrrolidone (PVP K-30) was tested as a solubilizer by being added to the solution.
Additionally, 2% (w/w) of xanthan gum, carboxymethyl cellulose, or PEG-240/HDI copolymer bis-decyltetradeceth-20 ether was tested as a thickener. Various combinations were also tested. The day on which precipitation first appeared was noted by visual or microscopic observation. The maximum days with no precipitation was recorded. […] Confirmatory mass spectrometry and ^1H-NMR indicated the precipitate was the compound of Chemical Formula 1.

[3] = Sun X et al. 2012; cited from earlier work
[4] = Ju Yong Song 2016 thesis; cited from earlier work
[5] = Ju Yong Song 2016 thesis; cited from earlier work; remark: listed apart in the source
[6] = tested on: Src/DDR tyrosine kinase family; conditions: see U.S. Pat. No. 9,062,066; cited from earlier work
[7] = Fowler A J et al. 2019; US 2019-0262323; cited from earlier work
[8] = ultraviolet light; Korean Patent No. 10-1478302; cited from earlier work
[9] = Transdermal potential: plasma pharmacokinetics via topical, intravenous and intradermal routes in rats; format: in vivo, SD rats; conditions: 5 mpk; for AUC(0-inf) / AUC(0-t) at 24 h / Cmax / Tmax / half-life: rat, 5 mg/kg, male SD rats, phosphate salt form, plasma
Procedure: An experiment was conducted to evaluate the transdermal potential of the thienopyridine compound (API) using 7-week-old male SD rats. Specifically, the same 5 mpk dose of the thienopyridine compound was administered via three routes-transdermal (topical), intravenous (tail vein), and intradermal injections-simultaneously, following the compositions and methods shown in Table 1 (n=3 per group). The plasma concentration of the thienopyridine compound and pharmacokinetic parameters were then measured for each route.
In more detail, in each formulation the thienopyridine compound was used in phosphate salt form (compound:phosphoric acid=1:2.5 equivalents) at a concentration of 0.3 wt % in the carrier solution. For the transdermal formulation, the thienopyridine compound was first dissolved in a carrier solution lacking 3% […]™ EG, and then 3% […]™ EG (Seppic, France) was added with stirring for 3 minutes to impart viscosity. Blood samples were collected via the carotid artery at 0 (negative control sample), 0.03, 0.16, 0.25, 0.5, 1, 2, 4, 6, and 24 hours post-administration, placed into heparinized tubes, and centrifuged (3,000 rpm, 10 minutes). Plasma (13.5 μl) was stored at −20 °C until analyzed by LC-MS/MS within a week. Plasma concentrations of the thienopyridine compound were determined by LC-MS/MS. Each 13.5 μl plasma sample was mixed with 60 μl of acetonitrile containing 1 μg/mL of an internal standard, vortexed, and centrifuged at 6,000 rpm for 15 minutes; 50 μl of the supernatant was then mixed with 50 μl of distilled water for LC-MS/MS analysis. The LC-MS/MS system was an Agilent 1200 Series HPLC (Agilent, Santa Clara, CA) coupled with an AP13200® triple-quadrupole mass spectrometer (Applied Biosystems-SCIEX, Concord, Canada). The mobile phase was 0.1% formic acid in water (A) and acetonitrile (B). Chromatographic separation was achieved on a reverse-phase Atlantis™ T3 column (100×2.1 mm, 3 μm; Waters, Milford, MA) at a flow rate of 0.25 ml/min under a gradient. The LOQ was 9.7 ng/ml, and the correlation coefficient (R) for calibration was 0.997.
Pharmacokinetic parameters were determined by noncompartmental analysis using WinNonlin® (Pharsight, Mountain View, CA). The maximum plasma concentration (Cmax) was taken directly from the plasma concentration-time profile, and time to reach Cmax (Tmax) was recorded. The area under the concentration-time curve from time zero to the last time point (AUC0-24) was calculated by the trapezoidal rule […]. AUC∞ was calculated by summing AUC0-24 and AUC24-∞, the latter obtained by dividing the 24-hour plasma concentration by the terminal elimination rate.

[10] = topical or ocular, topical application

## NC(N)=O [urea]
[1]
  effect on transdermal permeability of the thienopyridine compound: virtually no effect

## Oc1cccc(Nc2ccnc3cc(-c4cccc(CN5CCOCC5)c4)sc23)c1
[2]; thickener 2% PEG-240/HDI copolymer bis-decyltetradeceth-20 ether, solubilizer 1% polyvinylpyrrolidone (k30)
  maximum days with no precipitation: >7 days
[2]; thickener 2% PEG-240/HDI copolymer bis-decyltetradeceth-20 ether, solubilizer 1% urea
  maximum days with no precipitation: 6 days
[2]; thickener 2% PEG-240/HDI copolymer bis-decyltetradeceth-20 ether, solubilizer none
  maximum days with no precipitation: 6 days
[2]; thickener 2% carboxymethyl cellulose, solubilizer 1% polyvinylpyrrolidone (k30)
  maximum days with no precipitation: 1 days
[2]; thickener 2% carboxymethyl cellulose, solubilizer 1% urea
  maximum days with no precipitation: 1 days
[2]; thickener 2% carboxymethyl cellulose, solubilizer none
  maximum days with no precipitation: 1 days
[2]; thickener 2% xanthan gum, solubilizer 1% polyvinylpyrrolidone (k30)
  maximum days with no precipitation: 1 days
[2]; thickener 2% xanthan gum, solubilizer 1% urea
  maximum days with no precipitation: 1 days
[2]; thickener 2% xanthan gum, solubilizer none
  maximum days with no precipitation: 1 days
[2]; thickener none, solubilizer 1% polyvinylpyrrolidone (k30)
  maximum days with no precipitation: 5 days
[2]; thickener none, solubilizer 1% urea
  maximum days with no precipitation: 1 days
[2]; thickener none, solubilizer none
  maximum days with no precipitation: 1 days

## Oc1cccc(Nc2ccnc3cc(-c4cccc(CN5CCOCC5)c4)sc23)c1 [thienopyridine compound, 3-[[2-[3-(4-morpholinylmethyl)phenyl]thieno[3,2-b]pyridin-7-yl]amino]phenol]
[3]
  anti-inflammatory and anti-scarring activities, repair of damaged skin tissue: exhibits anti-inflammatory and anti-scarring activities and promotes the repair of damaged skin tissue
[4]
  suppression of histamine-induced pruritus: suppresses histamine-induced pruritus
[5]
  suppression of SLIGRL-NH2-induced pruritus: effectively suppresses
[6]
  inhibition of kinase activity: strongly inhibits
[7]
  progression of degenerative brain diseases: suppress the progression of degenerative brain diseases
[8]
  anti-aging activity, wrinkle formation: suppresses wrinkle formation
[9]; intradermal injection
  AUC(0-inf): 446 ± 160 ng·h/mL
  AUC(0-t) at 24 h: 315 ± 197 ng·h/mL
  Cmax: 40.3 ± 15.7 ng/mL
  Tmax: 0.65 ± 0.335 h
  half-life: 8.32 ± 3.15 h
[9]; intravenous (iv)
  AUC(0-inf): 619 ± 219 ng·h/mL
  AUC(0-t) at 24 h: 514 ± 222 ng·h/mL
  half-life: 2.74 ± 1.81 h
[9]; [10]
  AUC(0-inf): 49.4 ± 37.7 ng·h/mL
  AUC(0-t) at 24 h: 41.7 ± 8.84 ng·h/mL
  Cmax: 10.4 ± 13.5 ng/mL
  Tmax: 1.38 ± 1.75 h
  half-life: 5.46 ± 2.29 h
[9]; topical vs intravenous or intradermal, rats
  transdermal absorption relative to intravenous or intradermal administration: about one-tenth

## CC1CCC(C(C)C)C(O)C1 (stereo not drawn) [menthol]
[1]
  effect on transdermal permeability of the thienopyridine compound: uniquely strong enhancing effect

## OCC(O)CO [glycerol]
[1]
  effect on transdermal permeability of the thienopyridine compound: virtually no effect

## CC(O)CO (stereo not drawn) [propylene glycol]
[1]
  effect on transdermal permeability of the thienopyridine compound: virtually no effect
